Measurements taken from patent US4600540A, “Benzoylpropionic acid derivatives” (Taisho Pharmaceutical Co., Ltd., priority 1984, dated 1986).

Tests used:
[1] = test system: adjuvant arthritis in Lewis rats; assay: Effect on adjuvant arthritis in Lewis rats (Cellular immunostimulation); type: in vivo; conditions: 100 mg/Kg orally once a day, 21 days after sensitization; for Tumor stimulating ratio: control = 1.00; for Edema volume: hind paw
Method: Effect on adjuvant arthritis in Lewis rats
(Cellular immunostimulation)
10 Female Lewis rats, 9 weeks old, weighing 180-190 g were used per each group. Rats of each group were administered subcutaneously into the tail with a suspension of 0.6 mg of heated killed mycobaterium butyricum in liquid parafin. Each of the compounds I, suspended in a 5% gum arabic solution, was administered orally once a day to rats of different groups in an amounts of 100 mg/Kg after sensitization. As a comparative drug was used D-penicillamine in the form of an aqueous solution, which was administered orally to rats of different groups in a manner similar to the compound I.
In intervals were measured the edema volume of the hind paw of rats in the drug-treated groups and the control (the drug-untreated groups) for evaluating the tumor stimulating activity of the drug.

spleen lymphocytes [2] = assay: Stimulating effect of lymphocytes transformation (3H-thymidine uptake, mitogenation); type: cell-based, BDF1 mice; conditions: Mus musculus, Lymphocyte, B medium (with lipopolysaccharide 0.2 μg/ml); 0.3 μg/ml
Method: Stimulating effect of lymphocytes transformation
(Immunomodulative stimulating effect)
Mediums of RPMI-1640 (produced by GIBCO Co.) containing the compound I only (A medium), and containing a mitogen (lipopolysaccharide 0.2 μg/ml) and the compound I (B medium) were prepared.
2×10^5 of spleen lymphocytes of female BDF1 mice, 8-12 weeks old, weighing 20-22 g were cultured on each of the mediums at 37° C. for 48 hours under a 5% carbon dioxide in air. 0.25 μCi of ^3 H-thymidine was added to each of the mediums, and cultivation was further carried out for 22 hours. After completion of the cultivation, the lymphocytes were collected and their radio activity was measured to calculate the ^3 H-thymidine uptake into the lymphocytes for evaluating mitogenation.
The results were expressed as percent to ^3 H-thymidine uptake into lymphocytes in the control medium (not containing the compound I) and shown in Table 4.

[3] = test system: adjuvant arthritis in Sprague-Dawley rats; assay: Effect on adjuvant arthritis in Sprague-Dawley rats (chronic rheumatoid arthritis model); type: in vivo; conditions: 21 days after sensitization; for Edema volume: hind paw; for Paw edema suppression rate: vs control
Method: Effect on adjuvant arthritis is Sprague-Dawley rats
(chronic rheumatoid arthritis model)
10 Female Sprague-Dawley rats, 8 weeks old, weighting 160-190 g were used per each group. Rats of each group were administered subcutaneously into the tail with a suspension of 0.6 mg of heated killed mycobaterium butyricum in liquid parafin. Each of the compounds I, suspended in a 5% gum arabic solution, was administered orally once a day to rats of different groups in different amounts after sensitization.
At intervals were measured the edema volume of the hind paw of rats in the drug-treated groups and the control (drug-untreated groups) for evaluating tumor suppression activity of the compounds I.

[4] = test system: delayed-type footpad reaction; assay: Effect on delayed-type footpad reaction (Cellular immunomodulating effect); type: in vivo, Balb/c mice; conditions: 2 hours after sensitization
Method: Effect on delayed-type footpad reaction
(Cellular immunomodulating effect)
8 Female Balb/c mice, 8-12 weeks oil, weighing 20-24 g were used per each group. Mice of each group were administered subcutaneously into the right footpad with 1×10^8 sheep red blood cells as antigen to be sensitized.
Each of the compounds I, suspended in a 0.5% gum arabic saline solution, was administered intraperitoneally to mice of different groups in different amounts 2 hours after the sensitization.
Four days after the sensitization, mice of each group were administered subcutaneously into the left footpad with 1×10^8 sheep red blood cells, and the increase of thickness of swelling footpad was measured for evaluating the suppression to the delayed-type footpad reaction according to the method of Lagrange et al [Journal of Experimental Medicine, vol. 139, page 528,(1974)].

spleen lymphocytes [5] = assay: Stimulating effect of lymphocytes transformation (3H-thymidine uptake, mitogenation); type: cell-based, BDF1 mice; conditions: Mus musculus, Lymphocyte; for activity at 0.3 µg/mL: 0.3 μg/ml; for activity at 3 µg/mL: 3 μg/ml; for activity at 30 µg/mL: 30 μg/ml; for activity at 1 µg/mL: 1 μg/ml; for activity at 10 µg/mL: 10 μg/ml
Acute toxicity = conditions: rat, in vivo; oral, male Wister rats, observed for 7 days
Method: 7 male, 7 weeks old, Wister rats weighing 149-160 g were used per each for test. Rats were administered orally with a suspension of the compound I of Example 1 in a 5% gum arabic solution and observed for 7 days after administration, and the LD50 value was calculated.

[6] = B medium (with lipopolysaccharide 0.2 μg/ml)

**Q.** For `COc1ccc(C(=O)CC(CSC(C)=O)C(=O)O)cc1` (centres unmarked) [Example 7], which Tumor stimulating ratio [1] is on record?
**A.** Its Tumor stimulating ratio is 1.25.

**Q.** And the Edema volume [1]?
**A.** Its Edema volume is 3.41 ± 0.19 mL.

**Q.** Which results are given for `CCOC(=O)C(CSC(C)=O)CC(=O)c1ccccc1` (centres unmarked) [Example 16, ethyl 2-acethylthiomethyl-3-benzoylpropionate]?
**A.** Tumor stimulating ratio [1]: 1.17; Edema volume [1]: 3.18 ± 0.17 mL

**Q.** Which results are given for `O=C(CC(CSC(=O)c1ccccc1)C(=O)O)c1ccccc1` (centres unmarked) [Example 13, 3-benzoyl-2-benzoylthiomethylpropionic acid]?
**A.** Tumor stimulating ratio [1]: 1.33; Edema volume [1]: 3.63 ± 0.11 mL

**Q.** With `CC(=O)SCC(CC(=O)c1ccc(F)cc1)C(=O)O` (centres unmarked) [Example 2] as the compound, how does the Tumor stimulating ratio [1] read?
**A.** The Tumor stimulating ratio was 1.27.

**Q.** What about the Edema volume [1] of the same compound?
**A.** The Edema volume was 3.46 ± 0.47 mL.

**Q.** For `CC(=O)SCC(CC(=O)c1ccc(Br)cc1)C(=O)O` (centres unmarked) [Example 4, 2-acetylthiomethyl-3-(4-bromobenzoyl)propionic acid], which Tumor stimulating ratio [1] is on record?
**A.** Its Tumor stimulating ratio is 1.20.

**Q.** What about the Edema volume [1] of the same compound?
**A.** The Edema volume was 3.27 ± 0.28 mL.

**Q.** And the activity at 0.3 µg/mL (spleen lymphocytes [2])?
**A.** Its activity at 0.3 µg/mL is 115%.

**Q.** What about the Edema volume ([3]; 30 mg/kg orally once a day) of the same compound?
**A.** The Edema volume was 0.64 ± 0.29 mL.

**Q.** What about the “Paw edema suppression rate” value ([3]; 30 mg/kg orally once a day) of the same compound?
**A.** The value was 65.8%.

**Q.** And the Edema volume ([3]; 100 mg/kg orally once a day)?
**A.** Its Edema volume is 0.36 ± 0.14 mL.

**Q.** What about the “Paw edema suppression rate” value ([3]; 100 mg/kg orally once a day) of the same compound?
**A.** Its value is 80.7%.

**Q.** What about the Edema volume ([3]; 300 mg/kg orally once a day) of the same compound?
**A.** Its Edema volume is 0.12 ± 0.09 mL.

**Q.** What about the “Paw edema suppression rate” value ([3]; 300 mg/kg orally once a day) of the same compound?
**A.** Its value is 93.6%.

**Q.** What about the “Increase of thickness of swelling footpad” value (“Increase” for short) ([4]; 10 mg/kg intraperitoneally) of the same compound?
**A.** The value was 115.6 ± 4.8 × 10^-2 mm.

**Q.** What about the “Suppression rate of delayed-type footpad reaction” value ([4]; 10 mg/kg intraperitoneally) of the same compound?
**A.** The value was 8.5.

**Q.** What about the “Increase” value ([4]; 100 mg/kg intraperitoneally) of the same compound?
**A.** The value was 89.4 ± 5.5 × 10^-2 mm.

**Q.** And the “Suppression rate of delayed-type footpad reaction” value ([4]; 100 mg/kg intraperitoneally)?
**A.** The value was 29.3.

**Q.** And the activity at 0.3 µg/mL (spleen lymphocytes [5]; A medium (compound only))?
**A.** The activity at 0.3 µg/mL was 83%.

**Q.** And the activity at 3 µg/mL (spleen lymphocytes [5]; A medium (compound only))?
**A.** Its activity at 3 µg/mL is 97%.

**Q.** And the activity at 30 µg/mL (spleen lymphocytes [5]; A medium (compound only))?
**A.** The activity at 30 µg/mL was 117%.

**Q.** And the activity at 3 µg/mL (spleen lymphocytes [5]; [6])?
**A.** Its activity at 3 µg/mL is 107%.

**Q.** What about the activity at 30 µg/mL (spleen lymphocytes [5]; [6]) of the same compound?
**A.** The activity at 30 µg/mL was 131%.

**Q.** For `CC(=O)SCC(CC(=O)c1ccccc1)C(=O)O` (centres unmarked) [Example 1, 2-acethylthiomethyl-3-benzoylpropionic acid], which LD50 at 168 h (Acute toxicity) is on record?
**A.** The LD50 at 168 h was > 1200 mg/kg.

**Q.** What about the activity at 0.3 µg/mL (spleen lymphocytes [2]) of the same compound?
**A.** Its activity at 0.3 µg/mL is 134%.

**Q.** And the Edema volume ([3]; 30 mg/kg orally once a day)?
**A.** The Edema volume was 0.58 ± 0.18 mL.

**Q.** And the “Paw edema suppression rate” value ([3]; 30 mg/kg orally once a day)?
**A.** The value was 69.0%.

**Q.** What about the “Increase” value ([4]; 10 mg/kg intraperitoneally) of the same compound?
**A.** Its value is 102.5 ± 10.8 × 10^-2 mm.

**Q.** And the “Suppression rate of delayed-type footpad reaction” value ([4]; 10 mg/kg intraperitoneally)?
**A.** Its value is 37.7.

**Q.** And the “Increase” value ([4]; 100 mg/kg intraperitoneally)?
**A.** The value was 80.6 ± 8.0 × 10^-2 mm.

**Q.** And the “Suppression rate of delayed-type footpad reaction” value ([4]; 100 mg/kg intraperitoneally)?
**A.** Its value is 51.0.

**Q.** What about the activity at 0.3 µg/mL (spleen lymphocytes [5]; A medium (compound only)) of the same compound?
**A.** The activity at 0.3 µg/mL was 120%.

**Q.** And the activity at 1 µg/mL (spleen lymphocytes [5]; A medium (compound only))?
**A.** Its activity at 1 µg/mL is 114%.

**Q.** What about the activity at 3 µg/mL (spleen lymphocytes [5]; A medium (compound only)) of the same compound?
**A.** The activity at 3 µg/mL was 129%.

**Q.** What about the activity at 10 µg/mL (spleen lymphocytes [5]; A medium (compound only)) of the same compound?
**A.** Its activity at 10 µg/mL is 128%.

**Q.** And the activity at 30 µg/mL (spleen lymphocytes [5]; A medium (compound only))?
**A.** The activity at 30 µg/mL was 149%.

**Q.** And the activity at 1 µg/mL (spleen lymphocytes [5]; [6])?
**A.** Its activity at 1 µg/mL is 146%.

**Q.** What about the activity at 3 µg/mL (spleen lymphocytes [5]; [6]) of the same compound?
**A.** Its activity at 3 µg/mL is 177%.

**Q.** What about the activity at 10 µg/mL (spleen lymphocytes [5]; [6]) of the same compound?
**A.** Its activity at 10 µg/mL is 217%.

**Q.** What about the activity at 30 µg/mL (spleen lymphocytes [5]; [6]) of the same compound?
**A.** The activity at 30 µg/mL was 241%.

**Q.** Which Tumor stimulating ratio [1] does the source give for `CC(=O)SCC(CC(=O)c1ccc(Cl)cc1)C(=O)O` (centres unmarked) [Example 3] here?
**A.** The Tumor stimulating ratio was 1.18.

**Q.** And the Edema volume [1]?
**A.** Its Edema volume is 3.22 ± 0.09 mL.

**Q.** For `CC(C)(S)[C@@H](N)C(=O)O` [D-penicillamine, reference compound], which Tumor stimulating ratio [1] is on record?
**A.** Its Tumor stimulating ratio is 1.38.

**Q.** And the Edema volume [1]?
**A.** Its Edema volume is 3.76 ± 0.11 mL.
